The target in one test is Human plasma kallikrein (Homo sapiens (Human), UniProt P03952). The test is described as follows: Determination of the IC50 for Plasma Kallikrein. The test is classed as biochemical. The note with it: 37° C., fluorogenic substrate H-DPro-Phe-Arg-AFC; read-out: IC50 (human PKal). On the procedure:
Human plasma kallikrein (Protogen) was incubated at 37° C. with the fluorogenic substrate H-DPro-Phe-Arg-AFC and various concentrations of the test compound. Residual enzyme activity (initial rate of reaction) was determined by measuring the change in optical absorbance at 410 nm and the IC50 value for the test compound was determined.

Another test concerns the target Human KLK1 (Homo sapiens (Human), UniProt P06870). The test is described as follows: Determination of the IC50 for KLK1. Particulars: 37° C., fluorogenic substrate H-DVal-Leu-Arg-AFC. Format: biochemical. Here is the method:
KLK1 inhibitory activity in vitro was determined using standard published methods (see e.g. Johansen et al., Int. J. Tiss. Reac. 1986, 8, 185; Shori et al., Biochem. Pharmacol., 1992, 43, 1209; Stürzebecher et al., Biol. Chem. Hoppe-Seyler, 1992, 373, 1025). Human KLK1 (Callbiochem) was incubated at 37° C. with the fluorogenic substrate H-DVal-Leu-Arg-AFC and various concentrations of the test compound. Residual enzyme activity (initial rate of reaction) was determined by measuring the change in optical absorbance at 410 nm and the IC50 value for the test compound was determined.

Sequence of Human plasma kallikrein (P03952 391-638): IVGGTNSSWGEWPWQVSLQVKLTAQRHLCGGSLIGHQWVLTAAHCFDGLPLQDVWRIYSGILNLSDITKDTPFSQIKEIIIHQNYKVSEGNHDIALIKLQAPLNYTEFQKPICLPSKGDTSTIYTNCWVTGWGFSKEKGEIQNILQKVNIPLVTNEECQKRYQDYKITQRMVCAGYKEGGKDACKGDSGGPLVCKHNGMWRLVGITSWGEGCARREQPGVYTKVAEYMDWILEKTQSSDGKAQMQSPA
Sequence of Human plasma kallikrein (P03952 20-390 partner): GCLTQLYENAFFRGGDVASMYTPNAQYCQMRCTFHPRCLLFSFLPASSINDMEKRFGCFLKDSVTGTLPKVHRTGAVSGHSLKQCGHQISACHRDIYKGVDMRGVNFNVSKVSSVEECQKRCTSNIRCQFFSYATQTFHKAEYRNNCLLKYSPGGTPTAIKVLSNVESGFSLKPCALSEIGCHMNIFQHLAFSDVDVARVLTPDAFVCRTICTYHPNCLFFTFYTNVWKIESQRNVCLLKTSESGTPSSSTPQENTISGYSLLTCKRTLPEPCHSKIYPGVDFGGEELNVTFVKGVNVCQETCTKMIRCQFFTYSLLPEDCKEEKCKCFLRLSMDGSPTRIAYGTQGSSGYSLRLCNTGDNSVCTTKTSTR
Sequence of Human KLK1 (P06870 25-262): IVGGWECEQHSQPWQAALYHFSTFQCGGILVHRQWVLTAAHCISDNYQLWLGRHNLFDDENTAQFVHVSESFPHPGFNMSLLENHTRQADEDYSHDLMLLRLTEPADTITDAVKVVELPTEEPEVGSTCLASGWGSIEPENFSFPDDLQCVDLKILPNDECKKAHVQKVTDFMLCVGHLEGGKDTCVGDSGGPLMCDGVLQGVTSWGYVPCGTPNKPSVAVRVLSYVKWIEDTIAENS

On to `Cc1cc(C(=O)NCc2ccc(CN)cc2)c(C)n1Cc1cccc(C#N)c1` [Example 64, 1-(3-Cyano-benzyl)-2,5-dimethyl-1H-pyrrole-3-carboxylic acid 4-aminomethyl-benzylamide], for which the IC50 is 6.25 µM on Human plasma kallikrein and > 10 µM against Human KLK1.

Regarding `Cc1nn(Cc2csc(-c3ccccc3)n2)cc1C(=O)NCc1ccc(CN)cc1` [Example 81, 3-Methyl-1-(2-phenyl-thiazol-4-ylmethyl)-1H-pyrazole-4-carboxylic acid 4-aminomethyl-benzylamide], the IC50 is 0.695 µM on Human plasma kallikrein and > 10 µM against Human KLK1.

As for `CCn1c(C(=O)NCc2ccc(CN)cc2)cc(C)c1Cc1ccccc1` [Example 77, 5-Benzyl-1-ethyl-4-methyl-1H-pyrrole-2-carboxylic acid 4-aminomethyl-benzylamide], the results for the IC50 at Human plasma kallikrein and against Human KLK1 were 3.72 µM and > 10 µM, respectively.

For `Cc1cc(C(=O)NCc2ccc(CN)cc2)c(-c2ccccc2)n1Cc1csc(-c2ccccc2)n1` [Example 24, 5-Methyl-2-phenyl-1-(2-phenyl-thiazol-4-ylmethyl)-1H-pyrrole-3-carboxylic acid 4-aminomethyl-benzylamide], the IC50 at Human plasma kallikrein is 0.431 µM; at Human KLK1 it was > 10 µM.

Take `Cc1cc(C(=O)NCc2ccc(CN)cc2C(F)(F)F)c(C)n1Cc1csc(-c2ccccc2)n1` [Example 50, 2,5-Dimethyl-1-(2-phenyl-thiazol-4-ylmethyl)-1H-pyrrole-3-carboxylic acid 4-aminomethyl-2-trifluoromethyl-benzylamide]: the IC50 at Human plasma kallikrein was 0.056 µM; on Human KLK1 it was > 10 µM.

For the compound `CCn1c(C(=O)NCc2ccc(CN)cc2)cc(C)c1Cc1csc(-c2ccccc2)n1` [Example 123, 1-Ethyl-4-methyl-5-(2-phenyl-thiazol-4-ylmethyl)-1H-pyrrole-2-carboxylic acid 4-aminomethyl-benzylamide], the IC50 at Human plasma kallikrein was 2.15 µM; on Human KLK1 it was > 10 µM.

With `Cc1cnn(Cc2ccc(Cn3c(C)cc(C(=O)NCc4ccc(CN)cc4)c3C)cc2)c1` [Example 96, 2,5-Dimethyl-1-[4-(4-methyl-pyrazol-1-ylmethyl)-benzyl]-1H-pyrrole-3-carboxylic acid 4-aminomethyl-benzylamide], the figures for the IC50 at Human plasma kallikrein and on Human KLK1 were 0.063 µM and > 10 µM, respectively.

Take `Cc1cnn(Cc2ccc(Cn3cc(C(=O)NCc4ccc(C5(N)CC5)cc4)cn3)cc2)c1` [Example 103, 1-[4-(4-Methyl-pyrazol-1-ylmethyl)-benzyl]-1H-pyrazole-4-carboxylic acid 4-(1-amino-cyclopropyl)-benzylamide]: the IC50 at Human plasma kallikrein was 0.694 µM; on Human KLK1 it was > 10 µM.

As to `Cc1cc(C(=O)NCc2ccc(CN)cc2)c(C)n1Cc1cccc(-c2ccccc2)c1` [Example 69, 1-Biphenyl-3-ylmethyl-2,5-dimethyl-1H-pyrrole-3-carboxylic acid 4-aminomethyl-benzylamide], the IC50 is 0.689 µM at Human plasma kallikrein and > 10 µM against Human KLK1.

Regarding `CCOc1ccc(Cn2c(C)cc(C(=O)NCc3ccc(CN)cc3)c2C)cc1` [Example 59, 1-(4-Ethoxy-benzyl)-2,5-dimethyl-1H-pyrrole-3-carboxylic acid 4-aminomethyl-benzylamide], the values for the IC50 at Human plasma kallikrein and on Human KLK1 were 2.74 µM and > 10 µM, respectively.

For `Cc1cc(C(=O)NCc2ccc(CN)cc2)c(C)n1Cc1cccc(C(N)=O)c1` [Example 62, 1-(3-Carbamoyl-benzyl)-2,5-dimethyl-1H-pyrrole-3-carboxylic acid 4-aminomethyl-benzylamide], the IC50 is 6.03 µM on Human plasma kallikrein and > 10 µM against Human KLK1.

`NCc1ccc(CNC(=O)c2cnn(Cc3csc(-c4ccccc4)n3)c2C(F)(F)F)cc1` [Example 82, 1-(2-Phenyl-thiazol-4-ylmethyl)-5-trifluoromethyl-1H-pyrazole-4-carboxylic acid 4-aminomethyl-benzylamide]: the IC50 on Human plasma kallikrein is 0.488 µM; at Human KLK1, > 8.66 µM.

Regarding `CCn1c(C(=O)NCc2ccc(C3(N)CC3)cc2)cc(C)c1Cc1ccc(Cn2ccccc2=O)cc1` [Example 93, 1-Ethyl-4-methyl-5-[4-(2-oxo-2H-pyridin-1-ylmethyl)-benzyl]-1H-pyrrole-2-carboxylic acid 4-(1-amino-cyclopropyl)-benzylamide], the IC50 at Human plasma kallikrein is 2.85 µM; on Human KLK1, > 10 µM.

As to `Cc1cc(C(=O)NCc2ccc(CN)cc2Cl)c(C)n1Cc1csc(-c2ccccc2)n1` [Example 49, 2,5-Dimethyl-1-(2-phenyl-thiazol-4-ylmethyl)-1H-pyrrole-3-carboxylic acid 4-aminomethyl-2-chloro-benzylamide], the values for the IC50 on Human plasma kallikrein and against Human KLK1 were 0.089 µM and > 10 µM, respectively.

For the compound `COc1ccc(Cn2c(C)cc(C(=O)NCc3ccc(CN)cc3)c2C)cc1` [Example 61, 1-(4-Methoxy-benzyl)-2,5-dimethyl-1H-pyrrole-3-carboxylic acid 4-aminomethyl-benzylamide], the results for the IC50 on Human plasma kallikrein and against Human KLK1 were 2.99 µM and > 10 µM, respectively.

`Cc1cc(C(=O)NCc2ccc([C@@H](C)N)cc2)c(C)n1Cc1csc(-c2ccccc2)n1` [Example 48, 2,5-Dimethyl-1-(2-phenyl-thiazol-4-ylmethyl)-1H-pyrrole-3-carboxylic acid 4-((R)-1-amino-ethyl)-benzylamide]: the IC50 at Human plasma kallikrein is 0.624 µM; against Human KLK1, > 10 µM.

For the compound `Cc1cc(C(=O)NCc2ccc(CN)cc2F)c(C)n1Cc1csc(-c2ccccc2)n1` [Example 47, 2,5-Dimethyl-1-(2-phenyl-thiazol-4-ylmethyl)-1H-pyrrole-3-carboxylic acid 4-aminomethyl-2-fluoro-benzylamide], the IC50 at Human plasma kallikrein is 0.074 µM; against Human KLK1 it was > 10 µM.

Take `Cc1cnn(Cc2ccc(Cn3cc(C(=O)NCc4c(C)cc(CN)cc4C)c(C)n3)cc2)c1` [Example 114, 3-Methyl-1-[4-(4-methyl-pyrazol-1-ylmethyl)-benzyl]-1H-pyrazole-4-carboxylic acid 4-aminomethyl-2,6-dimethyl-benzylamide]: the IC50 at Human plasma kallikrein was 0.0006 µM; against Human KLK1 it was > 10 µM.

In the case of `Cc1cc(C(=O)NCc2ccc(CN)cc2)n(C)c1Cc1ccccc1` [Example 75, 5-Benzyl-1,4-dimethyl-1H-pyrrole-2-carboxylic acid 4-aminomethyl-benzylamide], the IC50 on Human plasma kallikrein was 4.5 µM; at Human KLK1, > 10 µM.

In the case of `Cc1cnn(Cc2ccc(Cn3cnc(C(=O)NCc4ccc(CN)cc4C)c3)cc2)c1` [Example 107, 1-[4-(4-Methyl-pyrazol-1-ylmethyl)-benzyl]-1H-imidazole-4-carboxylic acid 4-aminomethyl-2-methyl-benzylamide], the IC50 on Human plasma kallikrein is 0.003 µM; against Human KLK1, > 10 µM.

Consider `CC(=O)NCc1ccc(Cn2c(C)cc(C(=O)NCc3ccc(CN)cc3)c2C)cc1` [Example 68, 1-[4-(Acetylamino-methyl)-benzyl]-2,5-dimethyl-1H-pyrrole-3-carboxylic acid 4-aminomethyl-benzylamide], for which the IC50 on Human plasma kallikrein was 2.09 µM; against Human KLK1, > 10 µM.

Regarding `Cc1cc(C(=O)NCc2ccc(CN)cc2)c(C)n1Cc1cccc(N2CCOCC2)n1` [Example 15, 2,5-Dimethyl-1-(6-morpholin-4-yl-pyridin-2-ylmethyl)-1H-pyrrole-3-carboxylic acid 4-aminomethyl-benzylamide], the IC50 on Human plasma kallikrein was 5.69 µM; at Human KLK1 it was > 10 µM.

In the case of `Cc1cc(C(=O)NCc2ccc(CN)cc2)c(C)n1Cc1cccc(-c2ccccc2)n1` [Example 16, 2,5-Dimethyl-1-(6-phenyl-pyridin-2-ylmethyl)-1H-pyrrole-3-carboxylic acid 4-aminomethyl-benzylamide], the IC50 was 0.186 µM on Human plasma kallikrein and > 10 µM against Human KLK1.

For `CCOc1ccc(-c2nc(Cn3c(C)cc(C(=O)NCc4ccc(CN)cc4)c3C)cs2)cc1` [Example 41, 1-[2-(4-Ethoxy-phenyl)-thiazol-4-ylmethyl]-2,5-dimethyl-1H-pyrrole-3-carboxylic acid 4-aminomethyl-benzylamide], the IC50 on Human plasma kallikrein is 4.7 µM; against Human KLK1, > 10 µM.

Regarding `Cc1nc(-c2ccc(Cn3c(C)cc(C(=O)NCc4ccc(CN)cc4)c3C)s2)cs1` [Example 23, 2,5-Dimethyl-1-[5-(2-methyl-thiazol-4-yl)-thiophen-2-ylmethyl]-1H-pyrrole-3-carboxylic acid 4-aminomethyl-benzylamide], the IC50 at Human plasma kallikrein was 1.6 µM; on Human KLK1, > 10 µM.

With `Cc1cc(C(=O)NCc2ccc(CN)cc2)c(C)n1Cc1ccc(C#N)cc1` [Example 65, 1-(4-Cyano-benzyl)-2,5-dimethyl-1H-pyrrole-3-carboxylic acid 4-aminomethyl-benzylamide], the figures for the IC50 at Human plasma kallikrein and at Human KLK1 were 4.56 µM and > 10 µM, respectively.

Regarding `Cc1cnn(Cc2ccc(Cn3cc(C(=O)NCc4ccc(CN)cc4C)cn3)cc2)c1` [Example 106, 1-[4-(4-Methyl-pyrazol-1-ylmethyl)-benzyl]-1H-pyrazole-4-carboxylic acid 4-aminomethyl-2-methyl-benzylamide], the values for the IC50 on Human plasma kallikrein and at Human KLK1 were 0.002 µM and > 10 µM, respectively.

For the compound `Cc1cnn(Cc2ccc(Cn3cnc(C(=O)NCc4ccc(CN)cc4)c3)cc2)c1` [Example 104, 1-[4-(4-Methyl-pyrazol-1-ylmethyl)-benzyl]-1H-imidazole-4-carboxylic acid 4-aminomethyl-benzylamide], the IC50 is 0.03 µM on Human plasma kallikrein and > 10 µM against Human KLK1.

As usually defined, the IC50 is the point on the concentration scale where inhibition reaches its midpoint.

The record behind these values is US9670157B2, “Benzylamine derivatives” (KALVISTA PHARMACEUTICALS LIMITED, priority 2013, dated 2017).
